Columns and labels:
[1] = system: organisms native to the white water; experiment: Bactericidal efficacy of slimicides in paper mill white water; format: cell-based; conditions: Table 8
Description: White water was obtained from a Northeastern paperboard mill. The pH of the white water was about 6.5-7.5. The consistency of the white water was typically 0.1-0.2%. The furnish pulp was approximately 50% mixed, 15% chip, 15% corrugated, and 15% newspaper. The white water contained the sizing alkyl ketene dimer (AKD). The test organisms were those native to the white water.
The slimicide was added at a concentration of from about 15 to about 20 ppm (expressed as Cl2) to the white water. The white water was then incubated for 3 hours at 37° C. The test conditions were based on ASTM E 600-91 and ASTM E 1839-96. Bacterial counts were performed using tryptone glucose extract agar by known pour plate techniques. DIFCO D/E Neutralizing Broth was used as the first serial dilution tube for biocide neutralization.
The bactericidal efficacy of each slimicide in Table 6 was determined according to the procedure described in Example 2, except the incubation time was 30 minutes instead of 3 hours and the initial concentration of slimicide was about 20 ppm (expressed as Cl2).
The bactericidal efficacy rate of each slimicide was determined by dividing the observed log reduction in the bacterial count by the 30 minute contact time. The bactericidal efficacy rate at 2 ppm of slimicide (expressed as C2) was extrapolated from the results for 20 ppm of slimicide (expressed as Cl2) by assuming a first order behavior. […]
The bactericidal efficacy and bacterial efficacy rate of each slimicide in Table 8 below was determined according to the procedure described in Example 5.
The bactericidal efficacy of each slimicide in Table 10 was determined according to the procedure described in Example 2, except the initial concentration of slimicide was about 10 ppm (expressed as Cl2).
The microbiocidal efficacy rate of each slimicide was determined by dividing the observed log reduction in the bacterial count by the 180 minute contact time. The efficacy rate at 2 ppm of slimicide (expressed as Cl2) was extrapolated from the results for 10 ppm of slimicide (expressed as Cl2) by assuming a first order behavior. […]

[2] = Oxidant (halogen) loss rate with performance additive PAE; format: physicochemical
Description: (§1) 125 mL solutions containing 2.0 ppm (expressed total halogen as Cl2) of Cl0.9-5,5-dimethyl hydantoin, Dantochlor®, sodium hypochlorite, Dantobrom®, or sodium hypobromite and a performance additive described in Table 4 were prepared by mixing the appropriate amounts of the ingredients in tap water at a temperature of about 37° C. and a pH of about 8.
(§2) The degeneration of the performance additives tested was determined by measuring the residual oxidant (halogen) concentrations of the solutions over time as follows. The tests were performed in a water bath maintained at 37° C. and an orbital shaker in order to keep the performance additives dispersed in the solutions. Aliquots were taken at regular intervals over a 30 minute period and measured for residual slimicide concentrations using the standard diethyl-p-phenylene diamine (DPD) methodology described in Palin, A. T., Chemistry and Control of Modem Chlorination, La Motte Chemical (1973). The oxidant (halogen) loss rates were determined from first order linear regression plots of the residual oxidant (halogen) concentrations over time.
(§3) The ratio of bactericidal efficacy to oxidant loss rate was calculated for the slimicides and performance additives in Table 7 based on the results in Tables 5 and 6 above. […]

[3] = Oxidant (halogen) loss rate with performance additive A-PAM; format: physicochemical
Description: as §1, §2, §3

[4] = Oxidant (halogen) loss rate with performance additive C-Starch; format: physicochemical
Description: as §1, §2, §3

[5] = Oxidant (halogen) loss rate with performance additive C-PAM; format: physicochemical
Description: as §1, §2, §3

[6] = Oxidant (halogen) loss rate with performance additive AKD; format: physicochemical
Description: as §1, §2, §3

[7] = Table 9, extrapolated rate at 2 ppm (Table 8) divided by oxidant loss rate (Table 5)

In the case of `[Na+].[O-]Br` [NaOBr, Sodium hypobromite], the “Bactericidal Efficacy Rate (log cfu/ml reduction per minute)” value ([1]; 20 ppm slimicide, log reduction divided by 30 minute contact time) is reported as 0.002 log cfu/ml reduction per minute, the “Extrapolated Bactericidal Efficacy Rate (at 2 ppm of Slimicide) (log cfu/ml reduction per minute)” value ([1]; extrapolated from 20 ppm to 2 ppm assuming first order (one-tenth)) is reported as 0.0002 log cfu/ml reduction per minute and the “Bactericidal Efficacy (log cfu/ml reduction in 30 minutes)” value ([1]; procedure of Example 5, slimicide about 20 ppm (as Cl2), white water, 30 minutes) is reported as 0.07 log cfu/ml reduction. For the same molecule, the “Ratio of Bactericidal Efficacy Rate to Oxidant Loss Rate, PAE” value [2, 7] was 0.002 log cfu/ml reduction per ppm, the “Oxidant (Halogen) Loss Rate, PAE” value ([2]; slimicide 2.0 ppm (as Cl2), PAE 100 ppm active, tap water, 37° C., pH about 8, 30 minutes) was 0.103 ppm/min and the “Ratio of Bactericidal Efficacy Rate to Oxidant Loss Rate, A-PAM” value [3, 7] was 0.007 log cfu/ml reduction per ppm. For the same molecule, the “Oxidant (Halogen) Loss Rate, A-PAM” value ([3]; slimicide 2.0 ppm (as Cl2), A-PAM 50 ppm active, tap water, 37° C., pH about 8, 30 minutes) was 0.029 ppm/min, the “Ratio of Bactericidal Efficacy Rate to Oxidant Loss Rate, C-Starch” value [4, 7] was 0.02 log cfu/ml reduction per ppm and the “Oxidant (Halogen) Loss Rate, C-Starch” value ([4]; slimicide 2.0 ppm (as Cl2), C-Starch 100 ppm active, tap water, 37° C., pH about 8, 30 minutes) was 0.010 ppm/min. The “Ratio of Bactericidal Efficacy Rate to Oxidant Loss Rate, C-PAM” value [5, 7] was 0.008 log cfu/ml reduction per ppm, the “Oxidant (Halogen) Loss Rate, C-PAM” value ([5]; slimicide 2.0 ppm (as Cl2), C-PAM 4 ppm active, tap water, 37° C., pH about 8, 30 minutes) was 0.025 ppm/min and the “Ratio of Bactericidal Efficacy Rate to Oxidant Loss Rate, AKD” value [6, 7] was 0.07 log cfu/ml reduction per ppm. The “Oxidant (Halogen) Loss Rate, AKD” value ([6]; slimicide 2.0 ppm (as Cl2), AKD 10 ppm active, tap water, 37° C., pH about 8, 30 minutes) was 0.003 ppm/min.
